In ChEMBL document CHEMBL1150439, “Synthesis and evaluation of dual domain macrocyclic FKBP12 ligands” (Bioorg Med Chem Lett, 1994) one finds Kd data, which are given here for 7 compounds.

Each structure is given as a SMILES string.

Chain of Peptidyl-prolyl cis-trans isomerase FKBP1A (P62942 whole entry): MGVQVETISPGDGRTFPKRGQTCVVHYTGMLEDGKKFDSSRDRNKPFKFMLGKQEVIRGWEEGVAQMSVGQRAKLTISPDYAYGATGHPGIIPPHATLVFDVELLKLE

The experiment concerns the target Peptidyl-prolyl cis-trans isomerase FKBP1A (Homo sapiens, UniProt P62942). Put plainly: Binding affinity towards FK506 binding protein 12 as measured by displacement of a radiolabeled FK506 analogue.
For the compound `C=CCC1/C=C(\C)CCOC(=O)OC(=O)C2CC[C@@H](O2)C(=O)C(=O)C(=O)OC(=O)C(=O)N2CCCC[C@H]2C(=O)O[C@H](CCc2cccnc2)[C@H](C)CCC1=O` (some centres not stated), the Kd is 0.4 µM.

`C=CCC1/C=C(\C)CCCOC(=O)OC(=O)C2CC[C@@](C)(O2)C(=O)C(=O)C(=O)OC(=O)C(=O)N2CCCC[C@H]2C(=O)O[C@H](CCc2cccnc2)[C@H](C)CCC1=O` (some centres not stated): the Kd stood at 4 µM.

`C=CCC1/C=C(\C)CCCOC(=O)OC(=O)C2CC[C@@H](O2)C(=O)C(=O)C(=O)OC(=O)C(=O)N2CCCC[C@H]2C(=O)O[C@H](CCc2cccnc2)[C@H](C)CCC1=O` (some centres not stated) gave a Kd of 0.2 µM.

Compound `C=CCC1/C=C(\C)CCOC(=O)OC(=O)C2CC[C@@](C)(O2)C(=O)C(=O)C(=O)OC(=O)C(=O)N2CCCC[C@H]2C(=O)O[C@H](CCc2cccnc2)[C@H](C)CCC1=O` (some centres not stated) registered a Kd of 8 µM.

As for `C=CCC1/C=C(\C)CCOC(=O)OC(=O)CCCCC(=O)C(=O)OC(=O)C(=O)N2CCCC[C@H]2C(=O)O[C@H](CCc2cccnc2)[C@H](C)CCC1=O` (some centres not stated), the Kd is 4.5 µM.

In the case of `C=CCC1/C=C(\C)CCOC(=O)OC(=O)CCC(=O)C(=O)OC(=O)C(=O)N2CCCC[C@H]2C(=O)O[C@H](CCc2cccnc2)[C@H](C)CCC1=O` (some centres not stated), the Kd stood at 5.5 µM.

On to `C=CCC1/C=C(\C)CCOC(=O)OC(=O)CCCC(=O)C(=O)OC(=O)C(=O)N2CCCC[C@H]2C(=O)O[C@H](CCc2cccnc2)[C@H](C)CCC1=O` (some centres not stated), for which the Kd was found to be 2 µM.

A word on the Kd: it is the free concentration of one partner at which half of the binding sites on the other are occupied at equilibrium, for simple one-to-one binding.
